Data from patent EP1938810A1, “AMELIORATING AGENT FOR METABOLIC SYNDROME” (FUJI CHEMICAL INDUSTRY CO., LTD., priority 2005, dated 2007).

Columns and labels:
[1] = Change in body weight of rats under oral astaxanthin; format: in vivo, rat; conditions: for body weight: SHR/Ndmer rats
Procedure: (§1) Female 5 weeks old, metabolic syndrome model rats (SHR/Ndmer) (a product of Sankyo laboratories Co., Ltd.) were purchased and reared for about a week in a laboratory animals rearing room of a constant temperature (24 ± 1 °C), a constant humidity (54 ± 5 %) and a 12 hour light-dark cycle, and thereafter used for the experiment. Water and feed were provided ad lib to them. In the experiment, each group consists of 6 rats with proviso that 5 Wistar rats as normal group were used. Sample was orally administered to all rats in the afternoon.
(§2) • 1) Control group: olive oil was administered in an amount of 1 ml per 1 kg of body weight of rat. • 2) Astaxanthin 5 mg/Kg administration group: astaxanthin was administered in an amount of 5 mg in admixture with I ml of olive oil per 1 kg of body weight of rat. • 3) Astaxanthin 50 mg/Kg administration group: astaxanthin was administered in an amount of 50 mg in admixture with I ml of olive oil per 1 kg of body weight of rat. • 4) Normal group: olive oil was administered in an amount of 1 ml per 1 kg of body weight of Wister rat

[2] = system: metabolic syndrome model rats (SHR/Ndmer); assay: Measurement of blood pressure (tail artery, plethysmography); format: in vivo, rat; conditions: for diastolic blood pressure / systolic blood pressure: SHR/Ndmer rats
Procedure: Rats were broken in the apparatus since a week ago from the beginning of the experiment. They were bound slightly under a non-anesthetic and cuff with a built-in infrared sensor (THC-1, a product of Softron Co., Ltd. was applied to the tail artery to measure pressure (maximum, minimum and an average blood pressures) by a plethysmography. The measurement of blood pressure was conducted in the afternoon.
as §1, §2

[3] = system: metabolic syndrome model rats (SHR/Ndmer); assay: Fasting blood glucose value; format: in vivo, rat; conditions: overnight fasting
Procedure: Water only was given to rats ad lib from the day before the measurement not so as to give any feed to them. In the afternoon, 0.5 U of insulin was injected to them in an amount of 1 ml per 1 kg of the body weight, and the exsanguinations were conducted at given times to measure the glucose concentration in blood using a Antisence Π (a product of Horive Ltd).
as §1, §2

[4] = system: metabolic syndrome model rats (SHR/Ndmer); assay: Blood glucose value after insulin injection (insulin resistance test); format: in vivo, rat; conditions: for blood glucose value after insulin infection: SHR/Ndmer rats, fasted, 120 minutes after 0.5U insulin
Procedure: Water only was given to rats ad lib from the day before the measurement not so as to give any feed to them. In the afternoon, 0.5 U of insulin was injected to them in an amount of 1 ml per 1 kg of the body weight, and the exsanguinations were conducted at given times to measure the glucose concentration in blood using a […] Π (a product of Horive Ltd). Female 5 weeks old, metabolic syndrome model rats ([…] product of Sankyo laboratories Co., Ltd.) were purchased and reared for about a week in a laboratory animals rearing room of a constant temperature (24 ± 1 °C), a constant humidity (54 ± 5 %) and a 12 hour light-dark cycle, and thereafter used for the experiment. Water and feed were provided ad lib to them. In the experiment, each group consists of 6 rats with proviso that 5 Wistar rats as normal group were used. Sample was orally administered to all rats in the afternoon. • 1) Control group: olive oil was administered in an amount of 1 ml per 1 kg of body weight of rat. • 2) Astaxanthin 5 mg/Kg administration group: astaxanthin was administered in an amount of 5 mg in admixture with I ml of olive oil per 1 kg of body weight of rat. • 3) Astaxanthin 50 mg/Kg administration group: astaxanthin was administered in an amount of 50 mg in admixture with I ml of olive oil per 1 kg of body weight of rat. • 4) Normal group: olive oil was administered in an amount of 1 ml per 1 kg of body weight of Wister rat

[5] = system: metabolic syndrome model rats (SHR/Ndmer); assay: Measurement of fat in blood (triglyceride G test); format: in vivo, rat; conditions: for blood fat: Ax 50 mg/kg oral, SHR/Ndmer rats
Procedure: The supernatant formed after centrifugation was subjected to the triglyceride G test using an enzyme (a product of Wako Pure Chemical Industries, Ltd.) to measure the fat concentration in blood.
as §1, §2

[6] = system: metabolic syndrome model rats (SHR/Ndmer); assay: Measurement of adiponectin in blood (ELISA); format: in vivo, rat; conditions: for blood adiponectin concentration: Ax 50 mg/kg oral, SHR/Ndmer rats
Procedure: I ml of blood was exsanguinated from a rat. After centrifugation, the obtained supernatant was subjected to ELISA kit for measuring adiponectin (Otsuka Pharmaceutical Inc.) to measure the adiponectin concentration in blood
as §1, §2

[7] = background statement; cited from earlier work
[8] = Ax 5 mg/kg oral, at 6 weeks old
[9] = Ax 5 mg/kg oral, at 9 weeks old
[10] = Ax 5 mg/kg oral, at 17 weeks old
[11] = Ax 50 mg/kg oral, at 6 weeks old
[12] = Ax 50 mg/kg oral, at 9 weeks old
[13] = Ax 50 mg/kg oral, at 17 weeks old
[14] = Ax 5 mg/kg oral, at 12 weeks old
[15] = Ax 5 mg/kg oral, at 24 weeks old
[16] = Ax 50 mg/kg oral, at 12 weeks old
[17] = Ax 50 mg/kg oral, at 24 weeks old
[18] = Ax 5 mg/kg oral, at 7 weeks old
[19] = Ax 50 mg/kg oral, at 7 weeks old

CC1=C(/C=C/C(C)=C/C=C/C(C)=C/C=C/C=C(C)/C=C/C=C(C)/C=C/C2=C(C)C(=O)C(O)CC2(C)C)C(C)(C)CC(O)C1=O (stereo not drawn) [Ax, 3,3'-dihydroxy-β, β-carotene-4, 4'-dione]
body weight [1, 8]: 156 g | body weight [1, 9]: 259 g | body weight ([1]; Ax 5 mg/kg oral, at 13 weeks old): 378 g | body weight [1, 10]: 468 g | body weight [1, 11]: 148 g | body weight [1, 12]: 250 g | body weight ([1]; Ax 50 mg/kg oral, at 13 weeks old): 368 g | body weight [1, 13]: 459 g | change in the body weight (in words) ([1]; administration of astaxanthin, summary of Table 1): no change in the body weight | diastolic blood pressure [2, 8]: 121 mmHG | systolic blood pressure [2, 8]: 144 mmHG | diastolic blood pressure [2, 9]: 130 mmHG | systolic blood pressure [2, 9]: 161 mmHG | diastolic blood pressure [2, 14]: 129 mmHG | systolic blood pressure [2, 14]: 159 mmHG | diastolic blood pressure [2, 15]: 155 mmHG | systolic blood pressure [2, 15]: 185 mmHG | diastolic blood pressure [2, 11]: 121 mmHG | systolic blood pressure [2, 11]: 147 mmHG | diastolic blood pressure [2, 12]: 128 mmHG | systolic blood pressure [2, 12]: 160 mmHG | diastolic blood pressure [2, 16]: 119 mmHG | systolic blood pressure [2, 16]: 154 mmHG | diastolic blood pressure [2, 17]: 156 mmHG | systolic blood pressure [2, 17]: 189 mmHG | rise in blood pressure (in words) ([2]; administration of astaxanthin, summary of Tables 2 and 3): suppresses the rise in blood pressure | fasting blood glucose value [3, 18]: 132.0 mg/dL | fasting blood glucose value [3, 9]: 98.0 mg/dL | fasting blood glucose value [3, 14]: 88.3 mg/dL | fasting blood glucose value [3, 10]: 108.8 mg/dL | fasting blood glucose value [3, 19]: 135.0 mg/dL | fasting blood glucose value [3, 12]: 109.0 mg/dL | fasting blood glucose value [3, 16]: 89.3 mg/dL | fasting blood glucose value [3, 13]: 111.8 mg/dL | blood glucose value after insulin infection [4, 18]: 98.0 mg/dL | blood glucose value after insulin infection [4, 9]: 85.6 mg/dL | blood glucose value after insulin infection [4, 14]: 81.5 mg/dL | blood glucose value after insulin infection [4, 10]: 82.2 mg/dL | blood glucose value after insulin infection [4, 19]: 106.3 mg/dL | blood glucose value after insulin infection [4, 12]: 81.0 mg/dL | blood glucose value after insulin infection [4, 16]: 73.8 mg/dL | blood glucose value after insulin infection [4, 13]: 72.0 mg/dL | insulin resistance (in words) ([4]; administration of astaxanthin, summary of Table 5): significantly improved | blood fat ([5]; at 7 weeks old): 139.5 ± 15.9 mg/dL | blood fat ([5]; at 12 weeks old): 304.8 ± 9.9 mg/dL | increase in the blood fat with the passage of time (in words) ([5]; SHR/Ndmer, versus control group, summary of Table 6): suppresses the increase in the blood fat | blood adiponectin concentration ([6]; at 7 weeks old): 7.08 ± 0.43 µg/mL | blood adiponectin concentration ([6]; at 12 weeks old): 8.21 ± 0.14 µg/mL | adiponectin concentration in blood (in words) ([6]; administration of astaxanthin, summary of Table 7): increased in comparison with the control group | antioxidative action relative to vitamin E (α-tocopherol) [7]: about 1000 times | antioxidative action relative to β-carotene [7]: about 40 times
